Reference: patent US12103946B2, “Steroid compounds as Treg modulators and uses thereof” (New York University, priority 2018, dated 2024)
“Also recorded” adds a separate entry of the source.

Legend:
[1] = tested on: lamina propria CD4+ T cells (Th17, Treg); experiment: Anti-CD3 injection gut inflammation model, bile acid diet; assay type: in vivo, mouse; settings: 1% diet
Experimental: (§1) Data are shown as the mean±standard deviation by unpaired t-test with 2-tailed p-value.
(§2) Cells were then analyzed by flow cytometry.

[2] = tested on: ileal lamina propria Th17 and Treg cells; experiment: SFB-dependent Th17 cells in mice fed bile acid diet; assay type: in vivo, mouse; settings: 0.3% diet
Experimental: as §1, §2

[3] = tested on: naïve CD4+ T cells (Th17 differentiation, IL-17a); experiment: In vitro Th17 differentiation, IL-17a staining by flow cytometry; assay type: cell-based, mouse
From the text: (§3) Our screen included both primary bile acids, synthesized by the host, and secondary bile acids, produced by bacterial modification of primary bile acids (FIG. 5). Naïve CD4^+ T cells were isolated from wild-type C57BL/6J (B6) mice and cultured with bile acids under Th17 differentiation conditions and, as a counter-screen, Treg differentiation conditions (FIG. 6).
(§4) In Vitro T Cell Culture. Naïve CD4^+ (CD62L^+ CD44^− CD25^− CD4^+) T cells were isolated from the spleens and the lymph nodes of mice of designated genotypes with FACS sorting. For certain experiments, naïve CD4^+ T cells were enriched using naïve CD4^+ T cell isolation kits (Miltenyi). Naïve CD4^+ T cells (40,000 cells) were cultured in a 96-well plate pre-coated with hamster IgG (MP Biomedicals) in T cell medium (RPMI, 10% fetal bovine serum, 25 mM glutamine, 55 μM 2-mercaptoethanol, 100 U/mL penicillin, […] streptomycin) supplemented with 0.25 μg/mL anti-CD3 (clone 145-2C11) and 1 μg/mL anti-CD28 (clone 37.51). For Th0 culture, T cells were cultured with the addition of 100 U/mL of IL-2 (PEPROTECH). For Th1 cell differentiation, T cells were cultured with the addition of 100 U/mL of IL-2, 10 μg/mL of anti-IL-4 (clone 11B11) and 10 ng/mL of IL-12 (PEPROTECH). For Th2 cell differentiation, T cells were cultured with the addition of 10 μg/mL of anti-IFNγ (clone XMG1.2) and 10 ng/mL of IL-4 (R&D Systems). For Th17 cell differentiation, T cells were cultured with the addition of 10 ng/mL of IL-6 (eBioscience) and 0.5 ng/mL of TGF-β (PEPROTECH). For Treg culture, T cells were cultured with the addition of 100 U/mL of IL-2 and various concentrations of TGF-β. […] Bile acids, retinoic acid (Sigma) or mitoQ (Focus Biomolecules), or mitoPQ (Sigma) were added either at 0 or 16 h time points. Compounds with low water solubility were sonicated before adding to the culture. Cells were harvested and assayed by flow cytometry on day 3. For ROS and mitochondrial membrane potential detection, cells cultured for 2 days were incubated with 5 μM of mitoSOX (ThermoFisher), 10 μM of DCFDA (Sigma) or 2 μM of JC-1 (ThermoFisher) for 30 min and assayed with flow cytometry.
(§5) Flow Cytometry. Cells harvested from in vitro culture or in vivo mice experiments were stimulated with 50 ng/mL PMA (Phorbol 12-myristate 13-acetate, Sigma) and 1 μM ionomycin (Sigma) in the presence of GolgiPlug (BD) for 4 h to determine cytokine expression. After stimulation, cells were stained with cell surface marker antibodies and LIVE/DEAD Fixable dye, Aqua, to exclude dead cells, fixed and permeabilized with a FoxP3/Transcription factor staining kit (eBioscience), followed by staining with cytokine- and/or transcription factor-specific antibodies. All flow cytometry analyses were performed on an LSR II flow cytometer (BD) and data were analyzed with FlowJo software (TreeStar).

[4] = tested on: naïve CD4+ T cells; experiment: Cell proliferation assay (CFSE); assay type: cell-based, mouse; settings: 3 days, vs DMSO
Experimental: Data are representative of two independent experiments (b, d).
Cell Proliferation Assay. Naïve CD4^+ T cells were labeled with 1 μM carboxyfluorescein succinimidyl ester (CFSE, BioLegend) and cultured for 3 days prior to FACS analysis.

[5] = tested on: naïve CD4+ T cells (Treg differentiation, FoxP3); experiment: In vitro Treg differentiation, FoxP3 staining by flow cytometry; assay type: cell-based, mouse
From the text: To determine if bile acids influence T cell functions, the present inventors performed a small-scale screening assay with a small molecule library comprising secondary bile acids with in vitro Treg differentiation as a read-out. Naïve CD4^+ T lymphocytes were sorted from wild-type B6 mice and cultured in the presence of a TCR stimulus, interleukin 2 (IL-2), and different amounts of TGFβ (optimized for Treg differentiation). Treg differentiation was quantified at the single cell level by staining with an antibody specific for FoxP3, followed by flow cytometry analysis. Retinoic acid, a known enhancer of Treg differentiation, was used as a positive control.
as §3, §4, §5

## C[C@H](CCC(=O)O)[C@H]1CC[C@H]2[C@@H]3CC[C@@H]4CC(=O)CC[C@]4(C)[C@H]3CC[C@]12C [3-oxoLCA, 3-oxolithocholic acid]
[1]
  Th17 cell levels after anti-CD3 injection: reduced Th17 cell levels
[2]; Jax-B6 mice gavaged with SFB, one week
  percentage of ileal Th17 cells: significantly reduced the percentage of ileal Th17 cells
[2]; Tac-B6 mice with pre-existing SFB, 7 days
  Th17 cell percentages: reduced levels of Th17 cell percentages
[2]; Tac-B6 mice, 7 days
  Treg percentages: did not affect Treg percentages
[3]; 20 μM
  suppression of Th17 cells in VDR or FXR knockout cells: VDR and FXR also failed to contribute to the suppressive activities
[3]; bile acids 20 μM, 3 days, IL-6 and TGF-β
  Th17 cell differentiation (IL-17a): dose-dependent effects; also recorded: inhibited Th17 differentiation
[4]
  cell proliferation: do not significantly affect cell proliferation; also recorded: did not affect cell proliferation
[5]; 3-oxoLCA 20 μM + isoalloLCA 20 μM
  effect on Treg differentiation induced by isoalloLCA: further enhanced Treg differentiation induced by isoalloLCA in vitro
[5]; bile acids 20 μM, 3 days, anti-CD3/28, IL-2
  Treg differentiation (FoxP3 expression): did not affect Tregs
